Source: ChEMBL document CHEMBL5653631, “A Potent and Selective ULK1 Inhibitor Suppresses Autophagy and Sensitizes Cancer Cells to Nutrient Stress” (iScience, 2018)

How the values were obtained:
[1] = target: Mitogen-activated protein kinase kinase kinase 10 (Homo sapiens) (UniProt Q02779); experiment: Inhibition of human recombinant MLK2 at 15 nM related to control ULK1
[2] = target: Ephrin type-A receptor 7 (Homo sapiens) (UniProt Q15375); experiment: Inhibition of human recombinant EphA7 at 15 nM in presence of ATP by radiometric assay relative to control
[3] = target: T1, Serine/threonine-protein kinase Sgk1 (Homo sapiens) (UniProt O00141); experiment: Inhibition of human recombinant SGK1 at 15 nM related to control ULK1
T1 sequence (whole entry): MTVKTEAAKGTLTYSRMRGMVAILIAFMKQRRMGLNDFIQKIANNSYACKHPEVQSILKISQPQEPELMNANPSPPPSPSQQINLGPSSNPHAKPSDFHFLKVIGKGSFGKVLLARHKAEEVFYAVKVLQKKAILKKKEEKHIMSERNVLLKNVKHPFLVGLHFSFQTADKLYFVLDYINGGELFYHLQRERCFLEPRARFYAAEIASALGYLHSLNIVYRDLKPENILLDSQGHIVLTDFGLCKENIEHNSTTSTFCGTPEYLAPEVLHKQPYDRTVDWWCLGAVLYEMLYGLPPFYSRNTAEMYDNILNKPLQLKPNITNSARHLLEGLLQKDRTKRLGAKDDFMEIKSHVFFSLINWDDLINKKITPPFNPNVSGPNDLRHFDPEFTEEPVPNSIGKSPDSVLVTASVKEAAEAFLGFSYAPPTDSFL

[4] = target: T2, cGMP-dependent protein kinase 2 (Homo sapiens) (UniProt Q13237); experiment: Inhibition of human recombinant PKG2 at 40 nM related to control ULK1
T2 sequence (whole entry): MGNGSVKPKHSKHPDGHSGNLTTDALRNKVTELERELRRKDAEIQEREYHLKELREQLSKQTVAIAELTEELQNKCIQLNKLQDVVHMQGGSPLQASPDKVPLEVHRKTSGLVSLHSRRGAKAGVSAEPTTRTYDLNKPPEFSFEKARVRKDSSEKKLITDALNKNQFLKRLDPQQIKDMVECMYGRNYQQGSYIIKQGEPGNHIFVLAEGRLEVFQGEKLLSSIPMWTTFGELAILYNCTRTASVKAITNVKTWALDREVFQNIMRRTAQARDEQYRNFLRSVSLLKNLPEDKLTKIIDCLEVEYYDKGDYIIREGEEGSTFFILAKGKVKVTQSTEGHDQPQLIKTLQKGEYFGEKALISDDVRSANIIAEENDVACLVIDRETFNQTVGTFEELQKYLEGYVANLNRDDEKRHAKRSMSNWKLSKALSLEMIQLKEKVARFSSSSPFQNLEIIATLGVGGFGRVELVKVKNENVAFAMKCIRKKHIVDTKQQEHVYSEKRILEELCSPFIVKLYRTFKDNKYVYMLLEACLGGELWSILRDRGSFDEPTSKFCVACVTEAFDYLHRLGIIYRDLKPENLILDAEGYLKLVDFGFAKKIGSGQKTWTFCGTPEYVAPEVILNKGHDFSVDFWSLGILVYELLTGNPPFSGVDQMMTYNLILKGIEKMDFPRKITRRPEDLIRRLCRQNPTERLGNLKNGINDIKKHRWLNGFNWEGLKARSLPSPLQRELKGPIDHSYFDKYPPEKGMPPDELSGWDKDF

[5] = target: T3, Serine/threonine-protein kinase TAO2 (Homo sapiens) (UniProt Q9UL54); experiment: Inhibition of human recombinant TAO2 at 40 nM in presence of ATP by radiometric assay relative to control
T3 sequence (whole entry): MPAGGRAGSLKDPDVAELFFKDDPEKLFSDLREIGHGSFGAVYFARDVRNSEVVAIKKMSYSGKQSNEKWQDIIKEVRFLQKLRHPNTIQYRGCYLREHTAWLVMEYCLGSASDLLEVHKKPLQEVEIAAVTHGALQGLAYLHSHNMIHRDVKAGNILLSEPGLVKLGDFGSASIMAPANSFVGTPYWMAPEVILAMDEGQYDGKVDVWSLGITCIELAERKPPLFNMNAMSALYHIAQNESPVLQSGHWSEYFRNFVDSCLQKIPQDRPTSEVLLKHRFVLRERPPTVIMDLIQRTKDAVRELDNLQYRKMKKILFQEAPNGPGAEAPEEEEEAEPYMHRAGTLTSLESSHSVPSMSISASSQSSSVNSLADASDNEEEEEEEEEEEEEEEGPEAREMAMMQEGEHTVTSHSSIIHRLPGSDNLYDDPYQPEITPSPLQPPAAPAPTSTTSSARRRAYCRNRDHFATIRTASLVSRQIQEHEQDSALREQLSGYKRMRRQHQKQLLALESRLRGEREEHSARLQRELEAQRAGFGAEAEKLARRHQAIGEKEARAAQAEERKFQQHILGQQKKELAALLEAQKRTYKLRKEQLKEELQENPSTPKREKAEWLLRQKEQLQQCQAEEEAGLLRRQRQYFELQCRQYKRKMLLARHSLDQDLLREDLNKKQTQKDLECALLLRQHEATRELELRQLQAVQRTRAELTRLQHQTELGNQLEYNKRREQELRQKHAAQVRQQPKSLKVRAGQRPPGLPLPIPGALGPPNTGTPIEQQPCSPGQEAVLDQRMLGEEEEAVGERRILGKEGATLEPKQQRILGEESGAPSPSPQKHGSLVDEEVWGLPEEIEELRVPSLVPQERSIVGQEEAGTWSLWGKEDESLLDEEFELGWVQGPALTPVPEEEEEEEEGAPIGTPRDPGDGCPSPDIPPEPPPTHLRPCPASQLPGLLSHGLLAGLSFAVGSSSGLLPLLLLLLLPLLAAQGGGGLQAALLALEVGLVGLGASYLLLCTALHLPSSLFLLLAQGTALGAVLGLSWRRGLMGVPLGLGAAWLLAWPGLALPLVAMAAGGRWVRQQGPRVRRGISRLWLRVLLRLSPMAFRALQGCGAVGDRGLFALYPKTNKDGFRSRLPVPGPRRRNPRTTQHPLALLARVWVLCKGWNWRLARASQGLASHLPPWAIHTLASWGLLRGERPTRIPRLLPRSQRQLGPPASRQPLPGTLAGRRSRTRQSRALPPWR

[6] = target: Mitogen-activated protein kinase 8 (Homo sapiens) (UniProt P45983); experiment: Inhibition of human recombinant JNK1 at 40 nM in presence of ATP by radiometric assay relative to control
Mitogen-activated protein kinase 8 (Homo sapiens), sequence (P45983 whole entry): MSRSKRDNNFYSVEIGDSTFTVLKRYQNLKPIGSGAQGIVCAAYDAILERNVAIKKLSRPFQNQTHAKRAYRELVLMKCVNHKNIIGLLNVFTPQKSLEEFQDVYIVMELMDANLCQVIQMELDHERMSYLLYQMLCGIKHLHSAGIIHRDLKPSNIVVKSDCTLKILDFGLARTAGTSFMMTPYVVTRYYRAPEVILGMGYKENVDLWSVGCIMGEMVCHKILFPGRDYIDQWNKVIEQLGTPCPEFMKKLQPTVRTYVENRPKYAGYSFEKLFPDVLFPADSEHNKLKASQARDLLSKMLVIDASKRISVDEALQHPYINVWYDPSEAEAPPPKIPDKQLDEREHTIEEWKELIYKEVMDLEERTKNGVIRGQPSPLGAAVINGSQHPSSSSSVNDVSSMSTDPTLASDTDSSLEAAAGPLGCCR

Ephrin type-A receptor 7 (Homo sapiens), sequence (Q15375 28-998 limits assumed): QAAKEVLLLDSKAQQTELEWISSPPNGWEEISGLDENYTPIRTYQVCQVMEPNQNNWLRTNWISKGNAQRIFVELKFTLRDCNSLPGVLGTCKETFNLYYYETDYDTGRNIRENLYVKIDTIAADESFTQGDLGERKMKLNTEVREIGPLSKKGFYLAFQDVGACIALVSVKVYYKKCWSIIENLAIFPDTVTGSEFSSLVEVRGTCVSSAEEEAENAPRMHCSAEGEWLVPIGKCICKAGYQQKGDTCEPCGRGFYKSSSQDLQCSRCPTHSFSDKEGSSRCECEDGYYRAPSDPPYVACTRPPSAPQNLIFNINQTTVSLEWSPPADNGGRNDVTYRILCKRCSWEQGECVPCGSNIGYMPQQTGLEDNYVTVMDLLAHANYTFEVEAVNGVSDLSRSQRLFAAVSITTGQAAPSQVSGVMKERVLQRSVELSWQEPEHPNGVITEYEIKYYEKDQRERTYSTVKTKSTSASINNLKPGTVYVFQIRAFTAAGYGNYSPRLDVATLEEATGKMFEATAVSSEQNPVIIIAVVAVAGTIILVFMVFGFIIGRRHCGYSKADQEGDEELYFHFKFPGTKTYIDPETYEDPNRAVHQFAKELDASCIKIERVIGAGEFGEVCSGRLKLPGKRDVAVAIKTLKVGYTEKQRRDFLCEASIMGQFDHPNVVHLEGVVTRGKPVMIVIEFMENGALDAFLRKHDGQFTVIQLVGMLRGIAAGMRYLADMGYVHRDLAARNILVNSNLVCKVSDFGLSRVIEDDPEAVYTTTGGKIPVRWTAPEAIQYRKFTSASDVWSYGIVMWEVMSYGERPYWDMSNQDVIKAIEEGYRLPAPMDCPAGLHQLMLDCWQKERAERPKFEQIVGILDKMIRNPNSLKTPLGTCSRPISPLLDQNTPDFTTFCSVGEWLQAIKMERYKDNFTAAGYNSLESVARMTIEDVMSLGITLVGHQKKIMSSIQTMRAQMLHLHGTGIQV
Mitogen-activated protein kinase kinase kinase 10 (Homo sapiens), sequence (Q02779 whole entry, looked up): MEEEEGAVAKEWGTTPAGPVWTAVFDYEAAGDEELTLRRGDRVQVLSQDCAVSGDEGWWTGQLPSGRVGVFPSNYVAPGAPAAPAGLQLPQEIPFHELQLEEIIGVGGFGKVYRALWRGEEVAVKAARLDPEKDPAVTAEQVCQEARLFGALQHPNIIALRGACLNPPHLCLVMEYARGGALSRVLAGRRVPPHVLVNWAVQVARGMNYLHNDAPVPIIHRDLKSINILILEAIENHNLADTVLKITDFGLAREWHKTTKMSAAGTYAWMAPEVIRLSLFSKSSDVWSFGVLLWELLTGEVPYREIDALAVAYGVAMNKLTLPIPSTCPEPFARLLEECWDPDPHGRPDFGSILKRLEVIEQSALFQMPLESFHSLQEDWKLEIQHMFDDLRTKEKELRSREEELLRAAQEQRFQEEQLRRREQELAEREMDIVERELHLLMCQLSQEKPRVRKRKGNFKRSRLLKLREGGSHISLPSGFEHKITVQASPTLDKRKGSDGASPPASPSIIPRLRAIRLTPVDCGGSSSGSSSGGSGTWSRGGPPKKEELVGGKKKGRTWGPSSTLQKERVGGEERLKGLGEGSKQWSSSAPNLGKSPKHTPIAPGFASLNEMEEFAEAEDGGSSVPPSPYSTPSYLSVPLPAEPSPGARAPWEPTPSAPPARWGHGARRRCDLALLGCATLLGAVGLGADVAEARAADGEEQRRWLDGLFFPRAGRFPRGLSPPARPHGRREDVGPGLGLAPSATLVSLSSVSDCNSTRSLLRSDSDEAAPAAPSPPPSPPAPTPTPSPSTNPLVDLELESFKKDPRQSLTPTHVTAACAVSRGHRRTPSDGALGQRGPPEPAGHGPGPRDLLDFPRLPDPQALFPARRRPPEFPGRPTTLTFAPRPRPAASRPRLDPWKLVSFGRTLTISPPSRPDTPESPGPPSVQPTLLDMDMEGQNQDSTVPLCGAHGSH

| fold change (FC) [1] | inhibition [2] [%] | fold change (FC) [3] | fold change (FC) [4] | inhibition [5] [%] | inhibition [6] [%] | SMILES |
| --- | --- | --- | --- | --- | --- | --- |
| 0.14 | 0 | 0.05 |  |  |  | CC(C)[C@H](NC(=O)c1cc(-c2cnn3cc(-c4ccc(OCCN5CCCCC5)cc4)cnc23)cs1)C(F)(F)F |
|  |  |  | 0.01 | 3 | 0 | O=C(N[C@@H](C1CC1)C(F)(F)F)c1cc(-c2cnn3cc(-c4ccc(F)cc4)cnc23)cs1 |
